pIC50: −log10 of the molar value. Where a SMILES comes first, the peptide text is derived from it. Bridges are numbered along the chain shown (N, C = ends). [ ]: non-standard residue; d: D form. The star is where a group is joined. ξ: configuration not given here. Phe(3-CF3) = N[C@@H](Cc1cccc(C(F)(F)F)c1)C(=O)O; Phe(4-CF3) = N[C@@H](Cc1ccc(C(F)(F)F)cc1)C(=O)O; Phe(4-COOH) = N[C@@H](Cc1ccc(C(=O)O)cc1)C(=O)O; Bip = N[C@@H](Cc1ccc(-c2ccccc2)cc1)C(=O)O; Phe(3-F) = N[C@@H](Cc1cccc(F)c1)C(=O)O; Phe(3-Me) = Cc1cccc(C[C@H](N)C(=O)O)c1; Val(3-OH) = CC(C)(O)[C@H](N)C(=O)O; Cha = N[C@@H](CC1CCCCC1)C(=O)O; Cit = NC(=O)NCCC[C@H](N)C(=O)O; Ile(3ξ) = CCC(C)[C@H](N)C(=O)O; Carboxymethyl = O=C(O)C*; NMeA = CN[C@@H](C)C(=O)O; Aun = NCCCCCCCCCCC(=O)O; Dab = NCC[C@H](N)C(=O)O; Nva = CCC[C@H](N)C(=O)O; AEEA = NCCOCCOCC(=O)O
target: T1, PD-1/PD-L1 interaction (PE-labeled human PD-L1-Ig binding to Jurkat cell line over-expressing human PD-1) (Homo sapiens, UniProt Q15116); assay: Jurkat-PD-1 Cell Binding High-Content Screening Assay (CBA); conditions: PE-labeled PD-L1-Ig 20 nM final, Jurkat-hPD-1 cells; read-out: Jurkat HPD1 PDL1 IC50
T1 construct: expressed in transfected cells; host or cells: Jurkat
T1 sequence (Q15116 25-288): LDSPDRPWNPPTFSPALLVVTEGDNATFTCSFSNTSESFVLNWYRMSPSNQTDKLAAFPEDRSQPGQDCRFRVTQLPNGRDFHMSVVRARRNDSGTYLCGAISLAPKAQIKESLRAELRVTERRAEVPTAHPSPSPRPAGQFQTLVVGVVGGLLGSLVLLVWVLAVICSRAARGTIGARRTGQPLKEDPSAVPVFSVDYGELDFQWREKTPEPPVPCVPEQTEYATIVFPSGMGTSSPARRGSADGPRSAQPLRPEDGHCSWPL
Summary of the method: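 Cells 8×10^3/well, DMEM + 10% FCS; cpd 2 h, 37 °C; PE–PD-L1-Ig 20 nM final, 1 h; PFA fix + Hoechst 33342, 3× dPBS wash; high-content imager.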

Row | pIC50 | SMILES
1 | 8.60 | CC(C)C[C@H]1NC(=O)[C@H](C)N(C)C(=O)[C@H](Cc2ccc(C(=O)O)cc2)NC(=O)[C@H](Cc2ccc(-c3ccccc3)cc2)NC(=O)[C@H](Cc2ccc(C(=O)O)cc2)NC(=O)[C@H](Cc2cccc(C(F)(F)F)c2)NC(=O)[C@H](CC(=O)O)NC(=O)[C@H](Cc2ccc(C(=O)O)cc2)NC(=O)[C@H](Cc2ccc(OCC(=O)O)cc2)NC(=O)CSC[C@@H](C(=O)N[C@@H](CCN)C(=O)NCCCCCCCCCCC(=O)O)NC(=O)[C@H](CO)NC(=O)[C@H](C(C)(C)O)NC(=O)[C@H](CC2CCCCC2)NC(=O)[C@H](CCN)NC1=O [Example 2585] ({CH2CO}-Y(Carboxymethyl)[Phe(4-COOH)]D[Phe(3-CF3)][Phe(4-COOH)][Bip][Phe(4-COOH)][NMeA][dL][Dab][Cha][Val(3-OH)]SC[Dab][Aun]-OH; thioether N-14)
2 | 7.85 | CCC(C)[C@@H]1NC(=O)[C@H](Cc2ccc(-c3ccccc3)cc2)NC(=O)[C@H](Cc2ccc(C(F)(F)F)cc2)NC(=O)[C@H](Cc2cccc(F)c2)NC(=O)[C@H](CC(=O)O)NC(=O)[C@H](Cc2ccc(C(=O)O)cc2)NC(=O)[C@H](Cc2cnc[nH]2)NC(=O)CSC[C@@H](C(=O)N[C@@H](CCN)C(=O)NCCCCCCCCCCC(=O)O)NC(=O)[C@H](CO)NC(=O)[C@H](C(C)(C)O)NC(=O)[C@H](CC2CCCCC2)NC(=O)[C@H](CCN)NC(=O)[C@@H](CC(C)C)NC(=O)[C@H](C)N(C)C1=O (stereo partly drawn) [Example 2586] ({CH2CO}-H[Phe(4-COOH)]D[Phe(3-F)][Phe(4-CF3)][Bip][Ile(3ξ)][NMeA][dL][Dab][Cha][Val(3-OH)]SC[Dab][Aun]-OH; thioether N-14)
3 | 7.87 | CCC(C)[C@@H]1NC(=O)[C@H](Cc2ccc(-c3ccccc3)cc2)NC(=O)[C@H](C(C)C)NC(=O)[C@H](Cc2c[nH]c3ccccc23)NC(=O)[C@H](CC(=O)O)NC(=O)[C@H](Cc2ccc(OCC(=O)O)cc2)NC(=O)[C@H](Cc2ccc(OCC(=O)O)cc2)NC(=O)CSC[C@@H](C(=O)N[C@@H](CCN)C(=O)NCCOCCOCC(=O)NCCCCCCCCCCC(=O)O)NC(=O)[C@H](CCCNC(N)=O)NC(=O)[C@H](C(C)(C)O)NC(=O)[C@H](CC2CCCCC2)NC(=O)[C@H](Cc2cnc[nH]2)NC(=O)[C@@H](CC(C)C)NC(=O)[C@H](C)N(C)C1=O (stereo partly drawn) [Example 2587] ({CH2CO}-Y(Carboxymethyl)Y(Carboxymethyl)DWV[Bip][Ile(3ξ)][NMeA][dL]H[Cha][Val(3-OH)][Cit]C[Dab][AEEA][Aun]-OH; thioether N-14)
4 | 8.38 | CCC(C)[C@@H]1NC(=O)[C@H](Cc2ccc(-c3ccccc3)cc2)NC(=O)[C@H](C(C)C)NC(=O)[C@H](Cc2c[nH]c3ccccc23)NC(=O)[C@H](CC(=O)O)NC(=O)[C@H](Cc2ccc(OCC(=O)O)cc2)NC(=O)[C@H](Cc2ccc(OCC(=O)O)cc2)NC(=O)CSC[C@@H](C(=O)N[C@@H](CCN)C(=O)NCCOCCOCC(=O)NCCCCCCCCCCC(=O)O)NC(=O)[C@H](CCCCNC(C)=O)NC(=O)[C@H](C(C)(C)O)NC(=O)[C@H](CC2CCCCC2)NC(=O)[C@H](Cc2cnc[nH]2)NC(=O)[C@@H](CC(C)C)NC(=O)[C@H](C)N(C)C1=O (stereo partly drawn) [Example 2588] ({CH2CO}-Y(Carboxymethyl)Y(Carboxymethyl)DWV[Bip][Ile(3ξ)][NMeA][dL]H[Cha][Val(3-OH)]K(Ac)C[Dab][AEEA][Aun]-OH; thioether N-14)
5 | 7.45 | CCC[C@@H]1NC(=O)[C@H](C(C)(C)O)NC(=O)[C@H](CC2CCCCC2)NC(=O)[C@H](Cc2cnc[nH]2)NC(=O)[C@@H](CC(C)C)NC(=O)[C@H](C)N(C)C(=O)[C@H](C(C)CC)NC(=O)[C@H](Cc2ccc(-c3ccccc3)cc2)NC(=O)[C@H](C(C)C)NC(=O)[C@H](Cc2c[nH]c3ccccc23)NC(=O)[C@H](CC(=O)O)NC(=O)[C@H](Cc2ccc(OCC(=O)O)cc2)NC(=O)[C@H](Cc2ccc(OCC(=O)O)cc2)NC(=O)CSC[C@@H](C(=O)N[C@@H](CCN)C(=O)NCCOCCOCC(=O)NCCCCCCCCCCC(=O)O)NC1=O (stereo partly drawn) [Example 2589] ({CH2CO}-Y(Carboxymethyl)Y(Carboxymethyl)DWV[Bip][Ile(3ξ)][NMeA][dL]H[Cha][Val(3-OH)][Nva]C[Dab][AEEA][Aun]-OH; thioether N-14)
6 | 6.73 | CCC(C)[C@@H]1NC(=O)[C@H](Cc2ccc(-c3ccccc3)cc2)NC(=O)[C@H](Cc2ccc(C(F)(F)F)cc2)NC(=O)[C@H](Cc2c[nH]c3ccccc23)NC(=O)[C@H](CC(=O)O)NC(=O)[C@H](Cc2ccc(OCC(=O)O)cc2)NC(=O)[C@H](Cc2cnc[nH]2)NC(=O)CSC[C@@H](C(=O)N[C@@H](CCN)C(=O)NCCOCCOCC(=O)NCCCCCCCCCCC(=O)O)NC(=O)[C@H](CCC(=O)O)NC(=O)[C@H](C(C)(C)O)NC(=O)[C@H](CC2CCCCC2)NC(=O)[C@H](CCN)NC(=O)[C@@H](CC(C)C)NC(=O)[C@H](C)N(C)C1=O (stereo partly drawn) [Example 2590] ({CH2CO}-HY(Carboxymethyl)DW[Phe(4-CF3)][Bip][Ile(3ξ)][NMeA][dL][Dab][Cha][Val(3-OH)]EC[Dab][AEEA][Aun]-OH; thioether N-14)
7 | 8.51 | CCC(C)[C@@H]1NC(=O)[C@H](Cc2ccc(-c3ccccc3)cc2)NC(=O)[C@H](C(C)C)NC(=O)[C@H](Cc2c[nH]c3ccccc23)NC(=O)[C@H](CC(=O)O)NC(=O)[C@H](Cc2ccc(OCC(=O)O)cc2)NC(=O)[C@H](Cc2cnc[nH]2)NC(=O)CSC[C@@H](C(=O)N[C@@H](CCN)C(=O)NCCOCCOCC(=O)NCCCCCCCCCCC(=O)O)NC(=O)[C@H](CCC(=O)O)NC(=O)[C@H](C(C)(C)O)NC(=O)[C@H](CC2CCCCC2)NC(=O)[C@H](CCN)NC(=O)[C@@H](CC(C)C)NC(=O)[C@H](C)N(C)C1=O (stereo partly drawn) [Example 2591] ({CH2CO}-HY(Carboxymethyl)DWV[Bip][Ile(3ξ)][NMeA][dL][Dab][Cha][Val(3-OH)]EC[Dab][AEEA][Aun]-OH; thioether N-14)
8 | 7.05 | CCC(C)[C@@H]1NC(=O)[C@H](Cc2ccc(-c3ccccc3)cc2)NC(=O)[C@H](Cc2ccc(C(F)(F)F)cc2)NC(=O)[C@H](Cc2cccc(F)c2)NC(=O)[C@H](CC(=O)O)NC(=O)[C@H](Cc2ccc(OCC(=O)O)cc2)NC(=O)[C@H](Cc2cnc[nH]2)NC(=O)CSC[C@@H](C(=O)N[C@@H](CCN)C(=O)NCCOCCOCC(=O)NCCCCCCCCCCC(=O)O)NC(=O)[C@H](CCC(=O)O)NC(=O)[C@H](C(C)C)NC(=O)[C@H](CC2CCCCC2)NC(=O)[C@H](CCN)NC(=O)[C@@H](CC(C)C)NC(=O)[C@H](C)N(C)C1=O (stereo partly drawn) [Example 2592] ({CH2CO}-HY(Carboxymethyl)D[Phe(3-F)][Phe(4-CF3)][Bip][Ile(3ξ)][NMeA][dL][Dab][Cha]VEC[Dab][AEEA][Aun]-OH; thioether N-14)
9 | 8.05 | CC(=O)NCCCC[C@@H]1NC(=O)[C@H](C(C)(C)O)NC(=O)[C@H](CC2CCCCC2)NC(=O)[C@H](CCN)NC(=O)[C@@H](CC(C)C)NC(=O)[C@H](C)N(C)C(=O)[C@H](CCC(N)=O)NC(=O)[C@H](Cc2ccc(-c3ccccc3)cc2)NC(=O)[C@H](Cc2ccc(C(F)(F)F)cc2)NC(=O)[C@H](Cc2cccc(C)c2)NC(=O)[C@H](CC(=O)O)NC(=O)[C@H](Cc2ccc(OCC(=O)O)cc2)NC(=O)[C@H](Cc2ccc(OCC(=O)O)cc2)NC(=O)CSC[C@@H](C(=O)N[C@@H](CCN)C(=O)NCCOCCOCC(=O)NCCCCCCCCCCC(=O)O)NC1=O [Example 2593] ({CH2CO}-Y(Carboxymethyl)Y(Carboxymethyl)D[Phe(3-Me)][Phe(4-CF3)][Bip]Q[NMeA][dL][Dab][Cha][Val(3-OH)]K(Ac)C[Dab][AEEA][Aun]-OH; thioether N-14)
10 | 8.24 | CC(=O)NCCCC[C@@H]1NC(=O)[C@H](C(C)(C)O)NC(=O)[C@H](CC2CCCCC2)NC(=O)[C@H](CCN)NC(=O)[C@@H](CC(C)C)NC(=O)[C@H](C)N(C)C(=O)[C@H](Cc2ccc(C(F)(F)F)cc2)NC(=O)[C@H](Cc2ccc(-c3ccccc3)cc2)NC(=O)[C@H](Cc2ccc(C(=O)O)cc2)NC(=O)[C@H](Cc2cccc(C)c2)NC(=O)[C@H](CC(=O)O)NC(=O)[C@H](Cc2ccc(OCC(=O)O)cc2)NC(=O)[C@H](Cc2ccc(OCC(=O)O)cc2)NC(=O)CSC[C@@H](C(=O)N[C@@H](CCN)C(=O)NCCOCCOCC(=O)NCCCCCCCCCCC(=O)O)NC1=O [Example 2594] ({CH2CO}-Y(Carboxymethyl)Y(Carboxymethyl)D[Phe(3-Me)][Phe(4-COOH)][Bip][Phe(4-CF3)][NMeA][dL][Dab][Cha][Val(3-OH)]K(Ac)C[Dab][AEEA][Aun]-OH; thioether N-14)
11 | 7.93 | CC(=O)NCCCC[C@@H]1NC(=O)[C@H](C(C)(C)O)NC(=O)[C@H](CC2CCCCC2)NC(=O)[C@H](CCN)NC(=O)[C@@H](CC(C)C)NC(=O)[C@H](C)N(C)C(=O)[C@H](CCC(N)=O)NC(=O)[C@H](Cc2ccc(-c3ccccc3)cc2)NC(=O)[C@H](Cc2ccc(C(=O)O)cc2)NC(=O)[C@H](Cc2cccc(C)c2)NC(=O)[C@H](CC(=O)O)NC(=O)[C@H](Cc2ccc(C(F)(F)F)cc2)NC(=O)[C@H](Cc2ccc(OCC(=O)O)cc2)NC(=O)CSC[C@@H](C(=O)N[C@@H](CCN)C(=O)NCCOCCOCC(=O)NCCCCCCCCCCC(=O)O)NC1=O [Example 2595] ({CH2CO}-Y(Carboxymethyl)[Phe(4-CF3)]D[Phe(3-Me)][Phe(4-COOH)][Bip]Q[NMeA][dL][Dab][Cha][Val(3-OH)]K(Ac)C[Dab][AEEA][Aun]-OH; thioether N-14)
12 | 8.57 | CC(=O)NCCCC[C@@H]1NC(=O)[C@H](C(C)(C)O)NC(=O)[C@H](CC2CCCCC2)NC(=O)[C@H](CCN)NC(=O)[C@@H](CC(C)C)NC(=O)[C@H](C)N(C)C(=O)[C@H](CCC(N)=O)NC(=O)[C@H](Cc2ccc(-c3ccccc3)cc2)NC(=O)[C@H](Cc2ccc(C(=O)O)cc2)NC(=O)[C@H](Cc2cccc(C)c2)NC(=O)[C@H](CC(=O)O)NC(=O)[C@H](Cc2ccc(OCC(=O)O)cc2)NC(=O)[C@H](Cc2ccc(C(F)(F)F)cc2)NC(=O)CSC[C@@H](C(=O)N[C@@H](CCN)C(=O)NCCOCCOCC(=O)NCCCCCCCCCCC(=O)O)NC1=O [Example 2596] ({CH2CO}-[Phe(4-CF3)]Y(Carboxymethyl)D[Phe(3-Me)][Phe(4-COOH)][Bip]Q[NMeA][dL][Dab][Cha][Val(3-OH)]K(Ac)C[Dab][AEEA][Aun]-OH; thioether N-14)

From patent publication US20260070945A1, “MACROCYCLIC IMMUNOMODULATORS” (Bristol-Myers Squibb Company, priority 2022, published 2026)
